These results are taken from patent publication US20260085062A1, “NOVEL COMPOUNDS AS CK2 INHIBITORS” (Cambridge Enterprise Limited, priority 2022, published 2026).

One assay addresses T1, CLK2 (Homo sapiens, UniProt P49760).
T1 construct: purchased Carna Biosciences 04-127
Briefly: Biochemical assay for inhibitors of CLK2 kinase activity (ADP-Glo). Particulars: 20 nM CLK2, 50 μM peptide substrate, 100 μM ATP, read-out: Assay 2: CLK2 Enzyme IC50. How it is done: The inhibitory activity of putative kinase inhibitors and the potency of selected compounds were determined using ADP-GloTM assay. The kinase reaction was performed in the presence of excess peptide substrate and ATP at a concentration equivalent to Km. Upon termination of the kinase reaction, remaining ATP was depleted leaving only ADP reaction product, which was converted back to ATP with a coupled luciferin/luciferase reaction. The luminescent output from the coupled reaction was quantified and correlated with the kinase activity. […] The assay was conducted as follows: • 1. […] After 120 minutes, the reaction was stopped by addition of 5 pl ADP-Glo reagent (Promega V9102) and the plate incubated at RT for a further 60 minutes. • 5. 10 μL of Kinase Detection reagent (Promega V9102) was added to assay plate and incubated for a further 30 minutes prior to reading luminescence on an Envision (Perkin-Elmer). Data was analysed to calculate compound IC50and Ki as follows: • 1. […] Morrison Ki was determined using Morrison Ki equation (XL-fit).
(ADP-Glo first removes unused ATP, then detects ADP through luciferase.)

The next assay concerns the target T2, intracellular CK2α (Homo sapiens, UniProt P19784).
T2 construct: host or cells: HCT116 (ATCC CCL-247)
Briefly: Cell-based NanoBRET assay for inhibitor binding to intracellular CK2α. Particulars: HCT116 cells transiently transfected with CSNK2A2-NanoLuc fusion vector; Tracer K-5; 2 h; read-out: Assay 3: NanoBRET ™ assay for binding to intracellular CK2α. As for the experimental part: This assay used the NanoBRET™ System (Promega), an energy transfer technique designed to measure molecular proximity in living cells. The assay measured the apparent affinity of test compounds by competitive displacement of a NanoBRET™ tracer reversibly bound to a NanoLucR luciferase CK2α fusion protein in cells. A fixed concentration of tracer was added to cells expressing the desired NanoLucR-CK2α fusion protein to generate a BRET reporter complex. […] Donor emission wavelength (450 nm) and acceptor emission wavelength (610 nm or 630 nm) were measured on the Envision (Perkin-Elmer) and BRET ratio calculated for data analysis: BRET Ratio=(Acceptorsample/Donorsample)×1,000. • 7.
In general terms: BRET reads energy transfer from a luciferase to a nearby fluorophore.

For another assay, the target named is T3, CK2α (Homo sapiens, UniProt P68400).
T3 construct: CK2α (residues 2-329) was produced in Escherichia coli BL21 (DE3) for kinase activity screening; His6 (N, cleaved yes); made in house; host or cells: Escherichia coli BL21 (DE3)
T3 sequence (P68400 2-329): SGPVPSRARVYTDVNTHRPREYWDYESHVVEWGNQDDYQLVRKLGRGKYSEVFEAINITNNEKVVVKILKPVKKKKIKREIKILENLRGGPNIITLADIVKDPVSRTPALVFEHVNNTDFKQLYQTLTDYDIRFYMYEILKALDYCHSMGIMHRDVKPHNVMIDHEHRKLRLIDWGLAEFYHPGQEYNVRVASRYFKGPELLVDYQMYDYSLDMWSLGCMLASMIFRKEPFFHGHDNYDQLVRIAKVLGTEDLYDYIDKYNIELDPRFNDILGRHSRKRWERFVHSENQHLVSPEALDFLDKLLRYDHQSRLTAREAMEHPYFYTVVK
Briefly: Biochemical assay for inhibitors of CK2α kinase activity (ADP-Glo). Particulars: 0.2 nM CK2α, 50 μM peptide substrate, 15 μM ATP, read-out: Assay 1: CK2α Enzyme IC50. As for the experimental part:
The inhibitory activity of putative kinase inhibitors and the potency of selected compounds were determined using ADP-Glo™ assay. The kinase reaction was performed in the presence of excess peptide substrate and ATP at a concentration equivalent to Km. Upon termination of the kinase reaction, remaining ATP was depleted leaving only ADP reaction product, which was converted back to ATP with a coupled luciferin/luciferase reaction. The luminescent output from the coupled reaction was quantified and correlated with the kinase activity. […] Single colonies of the cells were grown in 6×1 L of 2×TY with 100 μg/mL ampicillin at 37° C. […] The cells were incubated overnight at 25° C. then harvested by centrifugation at 4,000 g for 20 minutes. The cell pellets were suspended in 20 mM Tris, 500 mM NaCl, pH 8.0 and lysed using a high pressure homogenizer. Protease inhibitor cocktail tablets (one tablet per 50 mL extract; Roche Diagnostics) and DNase I were then added. The crude cell extract was then centrifuged at 10,000 g for 45 minutes, the supernatant was filtered with a 0.22 μm filter. The soluble supernatant was applied on a Ni Sepharose Fast Flow6 column at pH 8.0, washed and eluted in 20 mM Tris pH 8.0, 500 mM NaCl, 200 mM imidazole. […] The cleaved protein was further purified on a Sepharose Q HP anion-exchange column and the main peak fraction from this column was further purified by gel filtration on a Superdex 75 16/60 HiPrep column equilibrated with Tris 20 mM, pH 8.0, 500 mM NaCl. Pure protein was concentrated to 15 mg/mL and flash frozen in liquid nitrogen. […] The assay was conducted as follows: • 1. […] After 120 minutes, the reaction was stopped by addition of 5 pl ADP-Glo reagent (Promega V9102) and the plate incubated at RT for a further 60 minutes. • 5. 10 μL of Kinase Detection reagent (Promega V9102) was added to assay plate and incubated for a further 30 minutes prior to reading luminescence on an Envision (Perkin-Elmer). Data was analysed to calculate compound IC50and Ki as follows: • 1. […] Percent activity was calculated for each well using: (Test well reading−MEAN100%inhibition control wells)/(MEAN0% inhibition control wells−MEAN100%inhibition control wells). • 5. Morrison Ki was determined using Morrison Ki equation (XL-fit).

T2 sequence (P19784 whole entry): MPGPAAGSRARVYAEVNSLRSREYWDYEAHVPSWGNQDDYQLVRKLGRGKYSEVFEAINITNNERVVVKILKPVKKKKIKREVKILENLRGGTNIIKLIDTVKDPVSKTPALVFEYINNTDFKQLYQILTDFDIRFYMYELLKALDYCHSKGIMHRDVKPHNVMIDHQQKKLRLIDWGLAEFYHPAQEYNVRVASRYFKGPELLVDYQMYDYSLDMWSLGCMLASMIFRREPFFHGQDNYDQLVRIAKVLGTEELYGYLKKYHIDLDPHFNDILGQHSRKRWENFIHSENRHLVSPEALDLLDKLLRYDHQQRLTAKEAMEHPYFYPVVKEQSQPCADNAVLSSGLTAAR
T1 sequence (P49760 whole entry): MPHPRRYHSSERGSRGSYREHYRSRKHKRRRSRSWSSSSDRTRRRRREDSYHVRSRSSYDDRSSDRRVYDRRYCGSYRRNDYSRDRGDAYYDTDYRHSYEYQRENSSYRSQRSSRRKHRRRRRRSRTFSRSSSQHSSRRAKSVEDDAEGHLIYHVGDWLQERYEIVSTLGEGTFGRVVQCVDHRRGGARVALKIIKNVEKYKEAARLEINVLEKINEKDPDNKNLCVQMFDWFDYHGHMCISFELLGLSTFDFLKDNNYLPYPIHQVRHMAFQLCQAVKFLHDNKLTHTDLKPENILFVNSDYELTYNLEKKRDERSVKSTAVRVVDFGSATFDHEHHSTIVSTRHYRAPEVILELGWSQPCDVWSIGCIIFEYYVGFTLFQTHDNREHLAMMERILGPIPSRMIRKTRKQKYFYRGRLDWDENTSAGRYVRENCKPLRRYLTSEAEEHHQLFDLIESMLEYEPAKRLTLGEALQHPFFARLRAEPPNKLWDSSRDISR

Regarding `NC(=O)c1cc(NCCCNC(=O)CCNCc2ccc(-c3ccccc3)c(Cl)c2)c2cn[nH]c2c1` [Example 2, 4-((3-(3-(((2-chloro-[1,1′-biphenyl]-4-yl)methyl)amino)propanamido)propyl)amino)-1H-indazole-6-carboxamide], the values for the IC50 at CLK2, on intracellular CK2α and at CK2α were 1230 nM, 5880 nM and 12.5 nM, respectively.

Consider `N#CCc1cc(NCCOCCCCNCc2cc(CO)cc(OC(F)(F)F)c2)c2cn[nH]c2c1` [Example 204, 2-(4-((2-(4-((3-(hydroxymethyl)-5-(trifluoromethoxy)benzyl)amino)butoxy)ethyl)amino)-1H-indazol-6-yl)acetonitrile], for which the IC50 was 3440 nM at CLK2, 405 nM on intracellular CK2α and 46.2 nM at CK2α.

As to `Cc1cc(CC#N)cc(CNCCCCOC2CN(c3cc(-c4cnoc4)cc4[nH]ncc34)C2)c1` [Example 121, 2-(3-(((4-((1-(6-(isoxazol-4-yl)-1H-indazol-4-yl)azetidin-3-yl)oxy)butyl)amino)methyl)-5-methylphenyl)acetonitrile], the IC50 on CLK2 was determined as 209 nM; on intracellular CK2α, 3670 nM; at CK2α, 44.9 nM.

As to `N#CCc1cc(Cl)cc(CNCCCCOC2CN(c3cc(-n4cnnc4)cc4[nH]ncc34)C2)c1` [Example 131, 2-(3-(((4-((1-(6-(4H-1,2,4-triazol-4-yl)-1H-indazol-4-yl)azetidin-3-yl)oxy)butyl)amino)methyl)-5-chlorophenyl)acetonitrile], the figures for the IC50 on CLK2, on intracellular CK2α and at CK2α were 146 nM, 3000 nM and 28.1 nM, respectively.

In the case of `CC(C)(C#N)c1cc(NCCOCCCCNCc2cc(CO)cc(OC(F)(F)F)c2)c2cn[nH]c2c1` [Example 206, 2-(4-((2-(4-((3-(hydroxymethyl)-5-(trifluoromethoxy)benzyl)amino)butoxy)ethyl)amino)-1H-indazol-6-yl)-2-methylpropanenitrile], the IC50 at CLK2 came to 2260 nM; on intracellular CK2α it was 595 nM; at CK2α it was 63.9 nM.

Consider `O=C(CCNCc1ccc(-c2ccccc2)c(Cl)c1)NCCCNc1cc(-c2ccncc2)cc2[nH]nnc12` [Example 8, 3-(((2-chloro-[1,1′-biphenyl]-4-yl)methyl)amino)-N-(3-((6-(pyridin-4-yl)-1H-benzo[d][1,2,3]triazol-4-yl)amino)propyl)propanamide], for which the results for the IC50 on CLK2, on intracellular CK2α and at CK2α were 1100 nM, 304 nM and 0.62 nM, respectively.

As to `C[C@@H](CCCOCCNc1cc(-c2cnoc2)cc2[nH]ncc12)NCc1cc(OC(F)(F)F)cc(C(N)=O)c1` [Example 196, (S)-3-(((5-(2-((6-(isoxazol-4-yl)-1H-indazol-4-yl)amino)ethoxy)pentan-2-yl)amino)methyl)-5-(trifluoromethoxy)benzamide], the figures for the IC50 on CLK2, on intracellular CK2α and on CK2α were 301 nM, 54.7 nM and 12.4 nM, respectively.

As to `N#Cc1cc(-c2cc(NCCCNC(=O)CCNCc3ccc(OC(F)(F)F)c(Cl)c3)c3cn[nH]c3c2)cnn1` [Example 187, 3-((3-chloro-4-(trifluoromethoxy)benzyl)amino)-N-(3-((6-(6-cyanopyridazin-4-yl)-1H-indazol-4-yl)amino)propyl)propanamide], the IC50 on CLK2 was 4680 nM; on intracellular CK2α, 949 nM; at CK2α, 8.62 nM.

Regarding `Cc1n[nH]cc1-c1cc(NCCCNC(=O)CCNCc2ccc(-c3ccccc3)c(Cl)c2)c2cn[nH]c2c1` [Example 27, 3-(((2-chloro-[1,1′-biphenyl]-4-yl)methyl)amino)-N-(3-((6-(3-methyl-1H-pyrazol-4-yl)-1H-indazol-4-yl)amino)propyl)propanamide], the figures for the IC50 on CLK2, on intracellular CK2α and at CK2α were 56.4 nM, 322 nM and 0.95 nM, respectively.

In the case of `N#CCc1cc(Cl)cc(CNCCCCOC2CN(c3cc(-c4ccnnc4)cc4[nH]ncc34)C2)c1` [Example 133, 2-(3-chloro-5-(((4-((1-(6-(pyridazin-4-yl)-1H-indazol-4-yl)azetidin-3-yl)oxy)butyl)amino)methyl)phenyl)acetonitrile], the results for the IC50 on CLK2, at intracellular CK2α and at CK2α were 2040 nM, 3070 nM and 31.5 nM, respectively.

Regarding `N#CCc1cc(CNCCCCOCCOc2cc(-n3cnnc3)cc3[nH]nnc23)cc(OC(F)(F)F)c1` [Example 148, 2-(3-(((4-(2-((6-(4H-1,2,4-triazol-4-yl)-1H-benzo[d][1,2,3]triazol-4-yl)oxy)ethoxy)butyl)amino)methyl)-5-(trifluoromethoxy)phenyl)acetonitrile], the IC50 on CLK2 was greater than 50000 nM; on intracellular CK2α it was greater than 50000 nM; at CK2α it was 138 nM.

Take `FC(F)(F)c1ccc2[nH]c(CNCCCCOCCOc3cc(-c4ccnnc4)cc4[nH]nnc34)cc2c1` [Example 101, 4-(2-((6-(pyridazin-4-yl)-1H-benzo[d][1,2,3]triazol-4-yl)oxy)ethoxy)-N-((5-(trifluoromethyl)-1H-indol-2-yl)methyl)butan-1-amine]: the IC50 on CLK2 was 48600 nM; at intracellular CK2α it was greater than 50000 nM; at CK2α, 223 nM.

Take `O=C(CCNCc1ccc(OC(F)(F)F)c(Cl)c1)NCCC(=O)Nc1cc(-n2cnnc2)cc2[nH]ncc12` [Example 18, N-(6-(4H-1,2,4-triazol-4-yl)-1H-indazol-4-yl)-3-(3-((3-chloro-4-(trifluoromethoxy)benzyl)amino)propanamido)propanamide]: the IC50 on CLK2 was 1620 nM; at intracellular CK2α it was 4420 nM; on CK2α it was 2.81 nM.

Consider `c1cc2[nH]c(CNCCCCOCCNc3cc(-n4cnnc4)cc4[nH]ncc34)cc2cc1OC1CCC1` [Example 53, N-(2-(4-(((5-cyclobutoxy-1H-indol-2-yl)methyl)amino)butoxy)ethyl)-6-(4H-1,2,4-triazol-4-yl)-1H-indazol-4-amine], for which the IC50 amounted to 119 nM on CLK2, 159 nM at intracellular CK2α and 0.33 nM at CK2α.

As to `O=C(CCNCc1ccc(OC(F)(F)F)c(Cl)c1)NCCCNc1cc(-c2cocn2)cc2[nH]ncc12` [Example 175, 3-((3-chloro-4-(trifluoromethoxy)benzyl)amino)-N-(3-((6-(oxazol-4-yl)-1H-indazol-4-yl)amino)propyl)propanamide], the IC50 is 1910 nM at CLK2, 1240 nM at intracellular CK2α and 10.7 nM at CK2α.

Take `O=C(O)c1cc(NCCCCNCCCCNCc2ccc(-c3ccccc3)c(Cl)c2)c2cn[nH]c2c1` [Example 60, 4-((4-((4-(((2-chloro-[1,1′-biphenyl]-4-yl)methyl)amino)butyl)amino)butyl)amino)-1H-indazole-6-carboxylic acid]: the IC50 at CLK2 was determined as 30200 nM; on CK2α, 215 nM.
